One series concerns SKOV-3 cell line. The series can be described thus: Antiproliferative effect against the SKOV-3 cell line (GI50, cell count). To be noted: for GI50: 50% cell growth inhibition, 72 hours of treatment, cell count, ND = activity not dose dependent. It is filed as cell-based, human. The protocol:
(§1) SKOV-3, A2780 and A2780 CIS were cultured and maintained, as previously described,[50] at 37 °C in RPMI 1640 medium (Euroclone) supplemented with 10% fetal bovine serum (FBS; Euroclone), L-glutamine and penicillin/streptomycin (SIGMA-ALDRICH). OVCA433, HEK-293T, HeLa, HCCLM3, SK-Hep-1, MCF-7, A549 and HCT-116 cells were maintained in DMEM medium (Euroclone) containing 10% FBS (Euroclone), L-glutamine and penicillin/streptomycin (SIGMA-ALDRICH). Wi-38 cells were cultured in DMEM medium (Euroclone) supplemented with 10% FBS (Euroclone), L-glutamine and penicillin/streptomycin (SIGMA-ALDRICH), and 1% non-essential amino acids (NEAA; Euroclone). The cultures were maintained in a constant temperature incubator at 37 °C with 5% CO2. […] Once cell adhesion had been promoted, the compounds were added to the culture medium. After 72 hours of treatment, the cells were counted, and the data analyzed by linear regression. Each experiment was carried out three times in triplicate and three separate cell counts were made for each sample. […] Afterwards, the concentration range was narrowed to the relative value obtained in the first evaluation in order to obtain an accurate value.

The next series addresses T1, hTopI (Homo sapiens, UniProt P11387).
T1 construct: endogenous in cells
The series can be described thus: Detection of hTOP1 cleavage complexes (cleavage assay). The series is classed as cell-based. As to conditions: 100 μM. As for the experimental part:
(§2) After compound treatments, 1 × 10^6 human cells in 35 mm dish per sample were washed with 1× phosphate-buffered saline (PBS) and lysed with 600 μL of DNAzol (Invitrogen), followed by precipitation with 300 μL of 200 proof ethanol. The nucleic acids were collected, washed with 75% ethanol, resuspended in 200 μL of TE buffer, and then heated at 65 °C for 15 min, followed by shearing with sonication (40% output for 10 s pulse and 10 s rest for four times). The samples were centrifuged at 15 000 rpm for 5 min at 4 °C, and the supernatant were collected. 1 μL of each sample was removed for spectrophotometric measurement of absorbance at 260 nm to quantitate DNA content (NanoDrop). 2 μg of each sample was subjected to slot-blot for immunoblotting using anti-hTOP1 antibody (BD Pharmingen, 556597) and anti-hTOP2α antibody (Santa Cruz biotechnology, 365916).[51]

Another series addresses T2, hTopII (Homo sapiens, UniProt P11388).
T2 construct: endogenous in cells
Description: Detection of hTOP2α cleavage complexes (cleavage assay). The series is classed as cell-based. As to conditions: 100 μM. The protocol:
as §2

Series [1] is described as follows: Cytotoxicity against non-tumor Wi-38 cells (CC50, cell count). The series is classed as cell-based. As to conditions: human, Wi-38 cells (non-tumor), 50% cytotoxicity concentration, 72 hours of treatment. The protocol: as §1
In series [2] the test system is several cancer cell lines. Also on record: method as in PMID 21368194. As to conditions: wide panel of cancer cells; read-out: GI50 against several cancer cell lines; cited from earlier work.
The test system of the next series is OVCA433. The series can be described thus: Antiproliferative effect against OVCA433 (GI50). The series is classed as cell-based. To be noted: Homo sapiens, 72 hours of treatment, cell count. As for the experimental part:
as §1

Series [3] deals with shRNA to siRNA maturation (GAPDH mRNA). Description: RNAi enhancing activity (shRNA to siRNA maturation, GAPDH mRNA in HEK-293T_shGAPDH). The series is classed as cell-based, human. As to conditions: 50 μM, 48 hours. As for the experimental part: HEK-293T_shSCR and HEK-293T_shGAPDH were treated with 50 μM of enoxacin and 33 for 48 hours before RNA extraction and expression analysis.
Lentiviral particles were produced by calcium phosphate transient transfection of HEK-293T cells with specific lentiviral plasmids (shGAPDH: TRCN0000445616 and shSCR: TRCN0000015937 from SIGMA-ALDRICH) together with the packaging plasmids (pLP1and pLP2) and the envelope plasmid pLP/VSVG. For each lentiviral plasmid one 150 mm plate of HEK293T cells was used for transfection. After 14–16 hours the medium was replaced with complete medium supplemented with 1 mM sodium butyrate (SIGMA-ALDRICH). The collection of medium containing lentiviral particles occurs 48 h and 72 h after transfection; complete medium supplemented with sodium butyrate was added after the first collection. […]
Total RNA was extracted using the Direct-zol RNA MiniPrep kit (Zymo Research) with on-column DNase treatment, according to the manufacturer's instructions. Reverse transcription was carried out with SuperScript VILO cDNA Synthesis Kit (Life Technologies) and the cDNA samples were analyzed by qRT-PCR using PowerUp SYBR Green Master Mix (Thermo Fisher Scientific). For miR-21 expression analysis total RNA was retrotranscribed using miRCURY® LNA® RT Kit (Qiagen) and the cDNA was analyzed by using miRCURY® LNA® miRNA PCR Assay (Qiagen). […]

The next series has as its system miR-21. Description: miR-21 expression in HeLa cells (qRT-PCR). To be noted: 50 μM, 6 hours. The series is classed as cell-based, human. As for the experimental part: Total RNA was extracted using the Direct-zol RNA MiniPrep kit (Zymo Research) with on-column DNase treatment, according to the manufacturer's instructions. Reverse transcription was carried out with SuperScript VILO cDNA Synthesis Kit (Life Technologies) and the cDNA samples were analyzed by qRT-PCR using PowerUp SYBR Green Master Mix (Thermo Fisher Scientific). For miR-21 expression analysis total RNA was retrotranscribed using miRCURY® LNA® RT Kit (Qiagen) and the cDNA was analyzed by using miRCURY® LNA® miRNA PCR Assay (Qiagen). The oligonucleotides used are the following: GAPDH_FW […]; GAPDH_REV […]; ATP5O_FW […]; ATP5O_REV […]; hsa-miR-21-5p miRCURY LNA miRNA PCR Assay (YP00204230); U6 snRNA (v2) miRCURY LNA miRNA PCR Assay (YP02119464).
In general terms: In qPCR the cycle at which signal appears reflects the starting amount.

The subject of the next series is A2780. The series can be described thus: Antiproliferative effect against A2780 (GI50). It is filed as cell-based. To be noted: Homo sapiens, 72 hours of treatment, cell count. The protocol:
as §1

The next series has as its system miR-21-5p biogenesis. The series can be described thus: miR-21-5p luciferase reporter (psi-R21 / psi-CTRL) in HeLa cells. It is filed as cell-based, human. As to conditions: 50 μM, 6 hours. The protocol: HeLa cells were transfected with 10 ng of psi-R21 or psi-CTRL using Lipofectamine™ 2000 (Thermo Fisher Scientific) and after 48 hours were treated with either enoxacin or 33 at 20 μM and 50 μM. After 6 hours Renilla luciferase (RLuc) and firefly luciferase (FLuc) activities were measured using the Dual-Luciferase® Reporter Assay System (Promega), following the manufacturer's instructions, and GloMax® Discover Microplate Reader (Promega).
The binding site for miR-21 was cloned into psiCHECK™-2 Vector (Promega), downstream the Renilla cDNA, by inverted PCR using the following oligonucleotides: 21MRE_FW […]; 21MRE_REV […]. The resulting construct was named psi-R21.
(In a reporter assay the amount or activity of a reporter protein is the signal.)

We go through two molecules from article PMC11467779, “New anti-ovarian cancer quinolone derivatives acting by modulating microRNA processing machinery” (RSC Medicinal Chemistry, 2024).

Where “and” joins values, the source holds several entries; their conditions need not be identical. Identical values can stand only once.

T1 sequence (P11387 whole entry): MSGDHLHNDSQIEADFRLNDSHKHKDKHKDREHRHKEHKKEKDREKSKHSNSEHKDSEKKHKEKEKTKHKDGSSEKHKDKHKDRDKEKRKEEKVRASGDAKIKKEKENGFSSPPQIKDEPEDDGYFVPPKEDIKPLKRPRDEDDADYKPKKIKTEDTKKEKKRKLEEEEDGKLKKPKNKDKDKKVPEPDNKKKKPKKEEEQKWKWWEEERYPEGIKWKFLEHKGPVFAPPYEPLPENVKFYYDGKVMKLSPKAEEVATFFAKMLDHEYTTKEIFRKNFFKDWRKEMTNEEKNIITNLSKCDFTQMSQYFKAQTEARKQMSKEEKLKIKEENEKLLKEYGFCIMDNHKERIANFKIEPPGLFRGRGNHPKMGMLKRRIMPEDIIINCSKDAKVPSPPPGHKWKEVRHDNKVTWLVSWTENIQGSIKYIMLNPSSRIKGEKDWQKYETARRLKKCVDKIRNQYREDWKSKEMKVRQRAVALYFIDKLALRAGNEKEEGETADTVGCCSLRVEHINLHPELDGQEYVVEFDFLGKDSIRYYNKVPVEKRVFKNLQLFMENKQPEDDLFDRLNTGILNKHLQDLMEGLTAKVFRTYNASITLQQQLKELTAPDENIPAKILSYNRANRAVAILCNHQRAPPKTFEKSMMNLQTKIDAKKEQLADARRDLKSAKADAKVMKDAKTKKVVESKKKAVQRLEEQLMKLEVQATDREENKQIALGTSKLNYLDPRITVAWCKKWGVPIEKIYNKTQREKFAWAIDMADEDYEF
T2 sequence (P11388 whole entry): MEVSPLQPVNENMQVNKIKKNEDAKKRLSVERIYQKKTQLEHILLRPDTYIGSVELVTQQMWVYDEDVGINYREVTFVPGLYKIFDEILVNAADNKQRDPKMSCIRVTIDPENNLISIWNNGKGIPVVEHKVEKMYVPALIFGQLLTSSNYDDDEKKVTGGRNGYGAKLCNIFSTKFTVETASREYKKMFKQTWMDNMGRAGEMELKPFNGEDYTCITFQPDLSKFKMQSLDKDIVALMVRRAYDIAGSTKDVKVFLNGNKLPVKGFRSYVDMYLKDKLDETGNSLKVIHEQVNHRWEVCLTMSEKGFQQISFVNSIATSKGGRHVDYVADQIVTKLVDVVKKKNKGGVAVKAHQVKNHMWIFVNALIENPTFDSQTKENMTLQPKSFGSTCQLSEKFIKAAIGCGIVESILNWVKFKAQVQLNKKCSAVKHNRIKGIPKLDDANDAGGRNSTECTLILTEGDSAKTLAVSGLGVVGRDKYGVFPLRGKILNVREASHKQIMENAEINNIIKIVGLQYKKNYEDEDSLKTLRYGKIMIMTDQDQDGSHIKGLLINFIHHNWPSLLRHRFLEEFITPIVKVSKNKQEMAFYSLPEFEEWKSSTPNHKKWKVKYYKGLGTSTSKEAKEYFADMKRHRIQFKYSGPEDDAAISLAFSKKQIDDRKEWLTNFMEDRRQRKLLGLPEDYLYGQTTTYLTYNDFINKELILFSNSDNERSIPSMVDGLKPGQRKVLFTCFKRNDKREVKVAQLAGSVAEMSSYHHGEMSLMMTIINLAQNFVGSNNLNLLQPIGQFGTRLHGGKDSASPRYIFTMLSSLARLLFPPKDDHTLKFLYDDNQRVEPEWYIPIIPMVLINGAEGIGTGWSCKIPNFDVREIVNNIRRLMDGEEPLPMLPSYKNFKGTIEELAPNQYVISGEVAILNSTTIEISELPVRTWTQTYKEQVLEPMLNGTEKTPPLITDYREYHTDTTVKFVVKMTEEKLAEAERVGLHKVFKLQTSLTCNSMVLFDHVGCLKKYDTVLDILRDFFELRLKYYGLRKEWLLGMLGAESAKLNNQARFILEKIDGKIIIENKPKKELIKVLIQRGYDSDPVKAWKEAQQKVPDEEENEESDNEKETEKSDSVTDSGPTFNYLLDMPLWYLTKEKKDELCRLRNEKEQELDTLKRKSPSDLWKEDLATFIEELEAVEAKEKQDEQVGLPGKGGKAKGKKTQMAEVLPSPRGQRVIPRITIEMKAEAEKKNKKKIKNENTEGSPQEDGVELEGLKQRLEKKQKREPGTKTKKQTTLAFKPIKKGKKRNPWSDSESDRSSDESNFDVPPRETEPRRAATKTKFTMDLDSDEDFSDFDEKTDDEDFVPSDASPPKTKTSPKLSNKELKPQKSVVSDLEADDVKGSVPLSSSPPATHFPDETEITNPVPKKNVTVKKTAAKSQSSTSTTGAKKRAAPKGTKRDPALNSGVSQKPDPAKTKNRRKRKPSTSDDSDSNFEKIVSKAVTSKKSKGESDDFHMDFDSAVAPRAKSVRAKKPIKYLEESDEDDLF

As a reminder, the GI50 is the concentration giving 50% growth inhibition. Broadly, the CC50 is the concentration that lowers cell viability or growth by half. Higher therefore signals better tolerance by the cells. For `Cc1c(N2CCc3ccccc3C2)c(N)cc2c(=O)c(C(=O)O)cn(C3CC3)c12` [Compound 5], the GI50 with SKOV-3 cell line was 37.7 ± 3.38 µM; with SKOV-3 cell line (Homo sapiens, SK-OV-3, 72 h) it was 38 µM. The “GI50 SKOV-3, fold lower than enoxacin” value in the series with SKOV-3 cell line (versus enoxacin) is reported as “about 3 fold”. The “trapping/inhibition of hTopI (cleavage assay)” value at hTopI is on record as “did not trap human topoisomerases”. Moreover, the “trapping/inhibition of hTopII (cleavage assay)” value at hTopII is listed as “did not trap human topoisomerases”. This molecule also gave a CC50 at 72 h in series [1] of 38.5 ± 29 µM.
For the molecule `CCn1cc(C(=O)O)c(=O)c2cc(F)c(N3CCNCC3)nc21` [Enoxacin, enoxacin, reference compound], the GI50 was 125 µM in the series with SKOV-3 cell line (Homo sapiens, SK-OV-3, 72 h); ~125 µM and 125 µM in series [2]; 118 ± 8.89 µM in the series on OVCA433; 142 ± 8.73 µM in the series on A2780. Further, the “RNAi enhancing effect (GAPDH mRNA decrease)” value in series [3] is “comparable”. The “miR-21 level in HeLa cells” value with miR-21 is listed as “Upregulation of miR-21”. The molecule further registered a CC50 at 72 h in series [1] of 216 ± 123 µM. The “miRNA enhancing effect: Renilla luciferase activity, psi-R21 construct” value in the series with miR-21-5p biogenesis is reported as “miRNA enhancing effect”.
